The source of these data is patent EP4471048A1, “PEPTIDE INHIBITORS OF INTERLEUKIN-23 RECEPTOR” (Zealand Pharma A/S, priority 2023, dated 2024).

Each structure is given as a SMILES string. *1 amine or outer side, *2 acyl side, *3 side chain or, on linkers, in order; H or OH if unused. Where a SMILES comes first, the peptide text is derived from it. Bridges are numbered along the chain shown (N, C = ends). [ ]: non-standard residue; d: D form. The star is where a group is joined. X14 = O=C(CC[C@H](N[*:2])C(=O)[*:3])[*:1]; NH(2-(3-pyridyl)ethyl) = c1cncc(CCN*)c1; 2Nal = N[C@@H](Cc1ccc2ccccc2c1)C(=O)O; AEF = NCCOc1ccc(C[C@H](N)C(=O)O)cc1; 3Pal = N[C@@H](Cc1cccnc1)C(=O)O; β3hE = N[C@@H](CCC(=O)O)CC(=O)O; αMeL = CC(C)C[C@](C)(N)C(=O)O; Dab = NCC[C@H](N)C(=O)O

This experiment deals with T1, human IL-23R (Homo sapiens, UniProt Q5VWK5).
T1 sequence (Q5VWK5 22-629): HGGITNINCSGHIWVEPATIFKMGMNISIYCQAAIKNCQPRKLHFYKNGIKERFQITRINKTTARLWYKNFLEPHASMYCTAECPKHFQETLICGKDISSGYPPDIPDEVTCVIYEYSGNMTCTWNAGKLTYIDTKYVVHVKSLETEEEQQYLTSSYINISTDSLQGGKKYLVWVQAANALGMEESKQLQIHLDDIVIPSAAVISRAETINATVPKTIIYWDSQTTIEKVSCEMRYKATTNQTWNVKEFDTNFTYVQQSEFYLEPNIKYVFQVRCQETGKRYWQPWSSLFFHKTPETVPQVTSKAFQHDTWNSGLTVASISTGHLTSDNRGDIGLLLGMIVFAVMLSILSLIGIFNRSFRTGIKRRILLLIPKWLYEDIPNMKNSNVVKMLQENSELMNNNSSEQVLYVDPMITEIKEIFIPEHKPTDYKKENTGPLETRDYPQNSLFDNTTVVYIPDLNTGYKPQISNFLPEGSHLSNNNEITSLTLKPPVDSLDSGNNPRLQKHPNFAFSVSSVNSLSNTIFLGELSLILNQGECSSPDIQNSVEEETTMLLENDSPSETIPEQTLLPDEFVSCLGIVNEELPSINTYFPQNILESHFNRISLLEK
The experiment in a line: biochemical. Particulars: for Emax: read-out: % displacement (hIL-23R NIuc). In short, it runs like this: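 BRET displacement of a TAMRA-labelled reference compound from N-terminal Nanoluc-IL-23R fusion protein in membranes from stably transfected HEK293 cells. Incubation 2 h at room temperature, then Nanoluc substrate was added and the TAMRA/Nanoluc ratio read. IC50 and maximal displacement came from 4-parameter logistic fits.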

On to `CNC(=O)[C@H](Cc1cccnc1)NC(=O)[C@H](CCN)NC(=O)[C@@H]1CCC(=O)NC[C@@H]2NC(=O)CC[C@H](NC(=O)[C@H](CCC(N)=O)NC(=O)[C@H](Cc3c[nH]c4ccccc34)NC2=O)C(=O)N[C@@H](Cc2ccc(OCCN)cc2)C(=O)N[C@@H](Cc2ccc3ccccc3c2)C(=O)N[C@@](C)(CC(C)C)C(=O)N1` [Compound 95, [Dpr](1c)(6c)^†WQE(6c)[Y(2-aminoethoxy)][2-Nal][2-Me-Leu]E(1c)[Dab][3-(3-Pyridyl)-Ala]-[NHMe]], for which the IC50 came out at 17 nM and the Emax stood at 98%.

Consider `COc1ccc(C[C@@H]2NC(=O)[C@@H]3CCC(=O)N[C@@H](CCCCNC(=O)CC[C@@H](C(=O)N[C@@H](CCCCNC(=O)c4cncnc4)C(N)=O)NC(=O)[C@](C)(CC(C)C)NC(=O)[C@H](Cc4ccc5ccccc5c4)NC2=O)C(=O)N[C@@H]([C@@H](C)O)C(=O)N[C@@H](C(C)C)C(=O)N[C@@H](Cc2c[nH]c4ccccc24)C(=O)N[C@@H](CCC(N)=O)C(=O)N3)cc1` [Compound 56, K(1c)(6c)^†TVWQE(6c)[Y(Me)][2-Nal][2-Me-Leu]E(1c)[K(3,5-pyrimidine)]-[NH2]], for which the IC50 is 210 nM and the Emax was found to be 98%.

Turning to `CC[C@H](C)[C@@H]1NC(=O)[C@@H]2CCCCNC(=O)CC[C@@H](C(=O)N[C@@H](CCN)C(=O)NCCCc3cccnc3)NC(=O)[C@](C)(CC(C)C)NC(=O)[C@H](Cc3ccc4ccccc4c3)NC(=O)[C@H](Cc3ccc(OCCN)cc3)NC(=O)[C@H](CCC(=O)N2)NC(=O)[C@H](CCC(N)=O)NC(=O)[C@H](Cc2c[nH]c3ccccc23)NC(=O)[C@H](C(C)C)NC1=O` [Compound 67, K(1c)(6c)^†IVWQE(6c)[Y(2-aminoethoxy)][2-Nal][2-Me-Leu]E(1c)[Dab]-[NH-3-(pyridin-3-yl)propyl]], 2.6 nM corresponded to half-maximal inhibition (IC50) and the Emax is 102%.

Take `CNC(=O)[C@H](Cc1cccnc1)NC(=O)[C@H](CCN)NC(=O)[C@@H]1CCC(=O)N[C@H]2CCNC(=O)CC[C@H](NC(=O)[C@H](CCC(N)=O)NC(=O)[C@H](Cc3c[nH]c4ccccc34)NC2=O)C(=O)N[C@@H](Cc2ccc(OCCN)cc2)C(=O)N[C@@H](Cc2ccc3ccccc3c2)C(=O)N[C@@](C)(CC(C)C)C(=O)N1` [Compound 103, [iso-Dab](1c)^†(6c)WQE(6c)[Y(2-aminoethoxy)][2-Nal][2-Me-Leu]E(1c)[Dab][3-(3-Pyridyl)-Ala]-[NHMe]]: half-maximal inhibition (IC50) was put at 15 nM and the Emax was 101%.

Turning to `CNC(=O)[C@H](Cc1cccnc1)NC(=O)[C@H](CCN)NC(=O)[C@@H]1CCC(=O)NCCC[C@@H]2NC(=O)CC[C@H](NC(=O)[C@H](CCC(N)=O)NC(=O)[C@H](Cc3c[nH]c4ccccc34)NC(=O)CNC2=O)C(=O)N[C@@H](Cc2ccc(OCCN)cc2)C(=O)N[C@@H](Cc2ccc3ccccc3c2)C(=O)N[C@@](C)(CC(C)C)C(=O)N1` [Compound 90, [Orn](1c)(6c)^†GWQE(6c)[Y(2-aminoethoxy)][2-Nal][2-Me-Leu]E(1c)[Dab][3-(3-Pyridyl)-Ala]-[NHMe]], the IC50 is 6.4 nM and the Emax came out at 101%.

In the case of `COc1ccc(C[C@@H]2NC(=O)[C@@H]3CCC(=O)N[C@@H](CCCCNC(=O)CC[C@@H](C(=O)N[C@@H](CCCCNC(=O)c4ccccn4)C(N)=O)NC(=O)[C@](C)(CC(C)C)NC(=O)[C@H](Cc4ccc5ccccc5c4)NC2=O)C(=O)N[C@@H]([C@@H](C)O)C(=O)N[C@@H](C(C)C)C(=O)N[C@@H](Cc2c[nH]c4ccccc24)C(=O)N[C@@H](CCC(N)=O)C(=O)N3)cc1` [Compound 47, K(1c)(6c)^†TVWQE(6c)[Y(Me)][2-Nal][2-Me-Leu]E(1c)[K(piconilate)]-[NH2]], the IC50 was determined as 730 nM and the Emax worked out at 99%.

As for `COc1ccc(C[C@@H]2NC(=O)[C@@H]3CCC(=O)N[C@@H](CCCCNC(=O)CC[C@@H](C(=O)N[C@@H](CCCCNC(=O)CCc4ccccn4)C(N)=O)NC(=O)[C@](C)(CC(C)C)NC(=O)[C@H](Cc4ccc5ccccc5c4)NC2=O)C(=O)N[C@@H]([C@@H](C)O)C(=O)N[C@@H](C(C)C)C(=O)N[C@@H](Cc2c[nH]c4ccccc24)C(=O)N[C@@H](CCC(N)=O)C(=O)N3)cc1` [Compound 49, K(1c)(6c)^†TVWQE(6c)[Y(Me)][2-Nal][2-Me-Leu]E(1c)[K(2-pyridylpropionyl)]-[NH2]], half-maximal inhibition (IC50) was put at 820 nM and the Emax turned out to be 96%.

Take `CC[C@H](C)[C@@H]1NC(=O)[C@@H]2CCCCNC(=O)CC[C@@H](CC(=O)NCCc3cccnc3)NC(=O)[C@](C)(CC(C)C)NC(=O)[C@H](Cc3ccc4ccccc4c3)NC(=O)[C@H](Cc3ccc(OCCN)cc3)NC(=O)[C@H](CCC(=O)N2)NC(=O)[C@H](CCC(N)=O)NC(=O)[C@H](Cc2c[nH]c3ccccc23)NC(=O)[C@H](C(C)C)NC1=O` [Compound 65, K(1c)(6c)^†IVWQE(6c)[Y(2-aminoethoxy)][2-Nal][2-Me-Leu][beta-hGlu](1c)-[NH-2-(pyridin-3-yl)ethyl]] (KIVWQE[AEF][2Nal][αMeL][β3hE]-{NH(2-(3-pyridyl)ethyl)}; lactam 1-10, N-6): the IC50 worked out at 140 nM and the Emax stood at 99%.

As for `CCCOc1ccc(C[C@@H]2NC(=O)[C@@H]3CCC(=O)N[C@@H](CCCCNC(=O)CC[C@@H](C(=O)NCCCCc4cccnc4)NC(=O)[C@](C)(CC(C)C)NC(=O)[C@H](Cc4ccc5ccccc5c4)NC2=O)C(=O)N[C@@H]([C@@H](C)CC)C(=O)N[C@@H](C(C)C)C(=O)N[C@@H](Cc2c[nH]c4ccccc24)C(=O)N[C@@H](CCC(N)=O)C(=O)N3)cc1` [Compound 32, K(1c)(6c)^†IVWQE(6c)[Y(nPr)][2-Nal][2-Me-Leu]E(1c)-[NH-4-(pyridin-3-yl)butanyl]], the IC50 was found to be 320 nM and the Emax was 99%.

As for `CC[C@H](C)[C@@H]1NC(=O)[C@@H]2CCCCNC(=O)CC[C@@H](C(=O)NCC(=O)N[C@H](Cc3cccnc3)C(N)=O)NC(=O)[C@](C)(C(C)C)NC(=O)[C@H](Cc3ccc4ccccc4c3)NC(=O)[C@](C)(Cc3ccccc3)NC(=O)[C@H](CCC(=O)N2)NC(=O)[C@H](CCC(N)=O)NC(=O)[C@H](Cc2c[nH]c3ccccc23)NC(=O)[C@H](C(C)C)NC1=O` [Compound 21, K(1c)(6c)^†IVWQE(6c)[2-Me-Phe][2-Nal][2-Me-Val]E(1c)G[{d}3-(3-Pyridyl)-Ala]-[NH2]], the “% displacement (hIL-23R NIuc)” value was 101% and it took 1000 nM to reach half-maximal inhibition (IC50).

For the compound `CNC(=O)[C@H](Cc1cccnc1)NC(=O)[C@H](CCN)NC(=O)[C@@H]1CCCCNC(=O)[C@@H]2CCC(=O)N[C@@H](Cc3c[nH]c4ccccc34)C(=O)N[C@@H](CCC(N)=O)C(=O)N[C@@H](CCC(=O)N2)C(=O)N[C@@H](Cc2ccc(OCCN)cc2)C(=O)N[C@@H](Cc2ccc3ccccc3c2)C(=O)N[C@@](C)(CC(C)C)C(=O)N1` [Compound 106, [iso-Glu](1c)^‡(6c)^†WQE(6c)[Y(2-aminoethoxy)][2-Nal][2-Me-Leu]K(1c)[Dab][3-(3-Pyridyl)-Ala]-[NHMe]] (WQE[AEF][2Nal][αMeL]K[Dab][3Pal]-NHMe; linker N-3-7 via X14), the “% displacement (hIL-23R NIuc)” value is 99% and the IC50 was found to be 2.5 nM.
